Measurements: patent US20240208992A1, “MACROCYCLES AS CFTR MODULATORS” (Idorsia Pharmaceuticals Ltd, priority 2021, published 2024)

Molecular target: human F508del-CFTR (Homo sapiens, UniProt P13569, DEL508-508)
Experiment: F508del-CFTR cell surface expression (corrector activity), DiscoveRx ß-galactosidase complementation chemiluminescence assay in recombinant U2OS cell line;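 note: U2OS cells co-expressing ProLink-tagged F508del-CFTR and a membrane-anchored enzyme acceptor, where more surface CFTR restores β-galactosidase activity measured by chemiluminescence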
Details: U2OS cell line, 16h compound incubation; for EC50: EC50, F508del-CFTR cell surface expression, geomean values; for Emax: U2OS, in relation to the Emax of the corrector lumacaftor (=100%), arithmetic mean values

human F508del-CFTR, sequence (P13569 with tags, fused parts or gaps DEL508-508): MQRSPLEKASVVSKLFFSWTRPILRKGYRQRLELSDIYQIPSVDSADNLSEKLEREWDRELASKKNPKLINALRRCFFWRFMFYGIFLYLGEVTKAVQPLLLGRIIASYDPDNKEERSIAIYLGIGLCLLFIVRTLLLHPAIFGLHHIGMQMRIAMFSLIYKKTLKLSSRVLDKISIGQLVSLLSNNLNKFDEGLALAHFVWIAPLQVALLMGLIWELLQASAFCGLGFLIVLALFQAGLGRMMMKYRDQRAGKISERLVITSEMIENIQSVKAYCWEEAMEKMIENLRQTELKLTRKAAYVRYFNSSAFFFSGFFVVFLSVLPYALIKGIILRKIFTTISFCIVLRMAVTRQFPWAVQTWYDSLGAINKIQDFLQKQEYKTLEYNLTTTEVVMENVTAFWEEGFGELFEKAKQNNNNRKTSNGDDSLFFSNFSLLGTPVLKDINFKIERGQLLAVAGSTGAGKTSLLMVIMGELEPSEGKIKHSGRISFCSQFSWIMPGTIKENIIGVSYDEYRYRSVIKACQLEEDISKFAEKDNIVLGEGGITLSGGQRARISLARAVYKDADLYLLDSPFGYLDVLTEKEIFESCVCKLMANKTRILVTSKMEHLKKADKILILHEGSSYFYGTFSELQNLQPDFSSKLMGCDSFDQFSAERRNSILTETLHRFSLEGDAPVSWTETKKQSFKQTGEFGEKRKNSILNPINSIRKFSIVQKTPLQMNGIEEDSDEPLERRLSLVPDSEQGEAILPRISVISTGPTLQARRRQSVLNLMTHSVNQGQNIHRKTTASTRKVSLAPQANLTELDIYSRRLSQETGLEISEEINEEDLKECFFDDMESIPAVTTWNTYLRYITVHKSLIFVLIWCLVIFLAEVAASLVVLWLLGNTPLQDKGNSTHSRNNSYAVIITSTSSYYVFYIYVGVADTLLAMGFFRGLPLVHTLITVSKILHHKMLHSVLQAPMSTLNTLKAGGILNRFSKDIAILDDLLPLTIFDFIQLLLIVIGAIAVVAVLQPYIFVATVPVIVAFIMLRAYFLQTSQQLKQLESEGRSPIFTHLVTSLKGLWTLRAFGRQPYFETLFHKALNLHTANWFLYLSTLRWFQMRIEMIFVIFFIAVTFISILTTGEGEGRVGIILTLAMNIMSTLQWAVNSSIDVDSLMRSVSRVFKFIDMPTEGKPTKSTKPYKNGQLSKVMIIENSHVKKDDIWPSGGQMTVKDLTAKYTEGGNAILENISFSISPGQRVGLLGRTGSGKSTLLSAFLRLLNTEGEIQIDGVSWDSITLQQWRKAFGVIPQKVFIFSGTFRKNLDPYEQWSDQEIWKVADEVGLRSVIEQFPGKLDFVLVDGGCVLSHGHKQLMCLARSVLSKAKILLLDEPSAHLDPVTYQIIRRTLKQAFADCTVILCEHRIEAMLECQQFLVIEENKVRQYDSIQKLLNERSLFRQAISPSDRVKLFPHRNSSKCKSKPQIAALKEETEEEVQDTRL

Compound | EC50 [nM] | Emax [%]
COc1cc(CCNC(=O)[C@@H]2CC(=O)N(C)[C@@H](CC(C)C)C(=O)N(C)C3(CC3)C(=O)N[C@H](Cc3ccccc3)COc3cnc4ccccc4c3C(=O)N2)cc(OC)c1 [Example 109, (3′S,7′S,13′R)-13′-benzyl-N-(3,5-dimethoxyphenethyl)-7′-isobutyl-6′,9′-dimethyl-1′,5′,8′,11′-tetraoxo-2′,3′,4′,5′,6′,7′,8′,9′,11′,12′,13′,14′-dodecahydro-1′H-spiro[cyclopropane-1,10′-[1]oxa[4,7,10,14]tetraazacycloheptadecino[17,16-c]quinoline]-3′-carboxamide] | 231 | 321
CC(C)C[C@H]1C(=O)N(C)C2(CC2)C(=O)N[C@H](Cc2ccccc2)COc2cnc3ccccc3c2C(=O)N[C@H](C(=O)NCCc2c(F)cccc2F)CC(=O)N1C [Example 110, (3′S,7′S,13′R)-13′-benzyl-N-(2,6-difluorophenethyl)-7′-isobutyl-6′,9′-dimethyl-1′,5′,8′,11′-tetraoxo-2′,3′,4′,5′,6′,7′,8′,9′,11′,12′,13′,14′-dodecahydro-1′H-spiro[cyclopropane-1,10′-[1]oxa[4,7,10,14]tetraazacycloheptadecino[17,16-c]quinoline]-3′-carboxamide] | 478 | 261
COc1ccc(CCNC(=O)[C@@H]2CC(=O)N(C)[C@@H](CC(C)C)C(=O)N(C)C3(CC3)C(=O)N[C@H](Cc3ccccc3)COc3cnc4ccccc4c3C(=O)N2)cc1 [Example 111, (3′S,7′S,13′R)-13′-benzyl-7′-isobutyl-N-(4-methoxyphenethyl)-6′,9′-dimethyl-1′,5′,8′,11′-tetraoxo-2′,3′,4′,5′,6′,7′,8′,9′,11′,12′,13′,14′-dodecahydro-1′H-spiro[cyclopropane-1,10′-[1]oxa[4,7,10,14]tetraazacycloheptadecino[17,16-c]quinoline]-3′-carboxamide] | 392 | 242
Cc1cccc(CCNC(=O)[C@@H]2CC(=O)N(C)[C@@H](CC(C)C)C(=O)N(C)C3(CC3)C(=O)N[C@H](Cc3ccccc3)COc3cnc4ccccc4c3C(=O)N2)c1 [Example 112, (3′S,7′S,13′R)-13′-benzyl-7′-isobutyl-6′,9′-dimethyl-N-(3-methylphenethyl)-1′,5′,8′,11′-tetraoxo-2′,3′,4′,5′,6′,7′,8′,9′,11′,12′,13′,14′-dodecahydro-1′H-spiro[cyclopropane-1,10′-[1]oxa[4,7,10,14]tetraazacycloheptadecino[17,16-c]quinoline]-3′-carboxamide] | 817 | 200
CC(C)C[C@H]1C(=O)N(C)C2(CC2)C(=O)N[C@H](Cc2ccccc2)COc2cnc3ccccc3c2C(=O)N[C@H](C(=O)NCCc2noc(C3CC3)n2)CC(=O)N1C [Example 115, (3′S,7′S,13′R)-13′-benzyl-N-(2-(5-cyclopropyl-1,2,4-oxadiazol-3-yl)ethyl)-7′-isobutyl-6′,9′-dimethyl-1′,5′,8′,11′-tetraoxo-2′,3′,4′,5′,6′,7′,8′,9′,11′,12′,13′,14′-dodecahydro-1′H-spiro[cyclopropane-1,10′-[1]oxa[4,7,10,14]tetraazacycloheptadecino[17,16-c]quinoline]-3′-carboxamide] | 380 | 250

Second part, the molecule after the results:

EC50 [nM] | Emax [%] | Compound
369 | 158 | CC(C)C[C@H]1C(=O)N(C)C2(CC2)C(=O)N[C@H](Cc2ccccc2)COc2cnc3ccccc3c2C(=O)N[C@H](C(=O)NCCc2ccc(F)c(F)c2)CC(=O)N1C [Example 113, (3′S,7′S,13′R)-13′-benzyl-N-(3,4-difluorophenethyl)-7′-isobutyl-6′,9′-dimethyl-1′,5′,8′,11′-tetraoxo-2′,3′,4′,5′,6′,7′,8′,9′,11′,12′,13′,14′-dodecahydro-1′H-spiro[cyclopropane-1,10′-[1]oxa[4,7,10,14]tetraazacycloheptadecino[17,16-c]quinoline]-3′-carboxamide]
924 | 220 | CCc1nc(CCNC(=O)[C@@H]2CC(=O)N(C)[C@@H](CC(C)C)C(=O)N(C)C3(CC3)C(=O)N[C@H](Cc3ccccc3)COc3cnc4ccccc4c3C(=O)N2)no1 [Example 114, (3′S,7′S,13′R)-13′-benzyl-N-(2-(5-ethyl-1,2,4-oxadiazol-3-yl)ethyl)-7′-isobutyl-6′,9′-dimethyl-1′,5′,8′,11′-tetraoxo-2′,3′,4′,5′,6′,7′,8′,9′,11′,12′,13′,14′-dodecahydro-1′H-spiro[cyclopropane-1,10′-[1]oxa[4,7,10,14]tetraazacycloheptadecino[17,16-c]quinoline]-3′-carboxamide]
554 | 253 | CC(C)C[C@H]1C(=O)N(C)C2(CC2)C(=O)N[C@H](Cc2ccccc2)COc2cnc3ccccc3c2C(=O)N[C@H](C(=O)NCCc2noc(C(C)(C)C)n2)CC(=O)N1C [Example 116, (3′S,7′S,13′R)-13′-benzyl-N-(2-(5-(tert-butyl)-1,2,4-oxadiazol-3-yl)ethyl)-7′-isobutyl-6′,9′-dimethyl-1′,5′,8′,11′-tetraoxo-2′,3′,4′,5′,6′,7′,8′,9′,11′,12′,13′,14′-dodecahydro-1′H-spiro[cyclopropane-1,10′-[1]oxa[4,7,10,14]tetraazacycloheptadecino[17,16-c]quinoline]-3′-carboxamide]
776 | 237 | Cc1cc(CCNC(=O)[C@@H]2CC(=O)N(C)[C@@H](CC(C)C)C(=O)N(C)C3(CC3)C(=O)N[C@H](Cc3ccccc3)COc3cnc4ccccc4c3C(=O)N2)no1 [Example 117, (3′S,7′S,13′R)-13′-benzyl-7′-isobutyl-6′,9′-dimethyl-N-(2-(5-methylisoxazol-3-yl)ethyl)-1′,5′,8′,11′-tetraoxo-2′,3′,4′,5′,6′,7′,8′,9′,11′,12′,13′,14′-dodecahydro-1′H-spiro[cyclopropane-1,10′-[1]oxa[4,7,10,14]tetraazacycloheptadecino[17,16-c]quinoline]-3′-carboxamide]
329 | 265 | CC(C)C[C@H]1C(=O)N(C)C2(CC2)C(=O)N[C@H](Cc2ccccc2)COc2cnc3ccccc3c2C(=O)N[C@H](C(=O)NCCc2cc(C3CC3)on2)CC(=O)N1C [Example 118, (3′S,7′S,13′R)-13′-benzyl-N-(2-(5-cyclopropylisoxazol-3-yl)ethyl)-7′-isobutyl-6′,9′-dimethyl-1′,5′,8′,11′-tetraoxo-2′,3′,4′,5′,6′,7′,8′,9′,11′,12′,13′,14′-dodecahydro-1′H-spiro[cyclopropane-1,10′-[1]oxa[4,7,10,14]tetraazacycloheptadecino[17,16-c]quinoline]-3′-carboxamide]
328 | 248 | CC(C)C[C@H]1C(=O)N(C)C2(CC2)C(=O)N[C@H](Cc2ccccc2)COc2cnc3ccccc3c2C(=O)N[C@H](C(=O)NCCc2cc(C(C)(C)C)on2)CC(=O)N1C [Example 119, (3′S,7′S,13′R)-13′-benzyl-N-(2-(5-(tert-butyl)isoxazol-3-yl)ethyl)-7′-isobutyl-6′,9′-dimethyl-1′,5′,8′,11′-tetraoxo-2′,3′,4′,5′,6′,7′,8′,9′,11′,12′,13′,14′-dodecahydro-1′H-spiro[cyclopropane-1,10′-[1]oxa[4,7,10,14]tetraazacycloheptadecino[17,16-c]quinoline]-3′-carboxamide]
